Article PMC6934184, “Selective DNA-PKcs inhibition extends the therapeutic index of localized radiotherapy and chemotherapy” (The Journal of Clinical Investigation, 2019)

Target: T1, ULK3 (Homo sapiens, UniProt Q6PHR2)
T1 construct: purchased Thermo Fisher Scientific (Life Technologies) SelectScreen
Assay: SelectScreen LanthaScreen
Format: binding
Settings: 1 µM
Description: The in vitro kinase selectivity of NU5455 was determined using the SelectScreen Broad Assay Panel (Thermo Fisher Scientific) involving activity and binding assays (Supplemental Table 1). […] Class IA PI3Ks were measured using the p85α subunit.
Kinase [ATP] % Assay Kinase [ATP] % Assay Kinase [ATP] % Assay Kinase [ATP] % Assay
DNA-PK Km app 98.3 Z LATS2 n/a 4.7 L KIT D820E n/a 1.3 L GSK3B (GSK3 beta) Km app -2.5 Z
PIK3C3 (hVPS34) Km app 85.9 A PRKCZ (PKC zeta) Km app 4.7 Z GRK1 n/a 1.3 L BMPR2 n/a -2.5 L
PIK3C2B (PI3K-C2 beta) 10 28.9 A FGFR1 Km app 4.7 Z BRSK2 n/a 1.2 L CDC42 BPB (MRCKB) Km app -2.5 Z
SNF1LK2 Km app 26.6 Z MINK1 Km app 4.6 Z NUAK1 (ARK5) Km app 1.2 A AMPK (A2/B2/G2) n/a -2.6 L
HCK Km app 18.0 Z CSF1R (FMS) Km app 4.3 Z CDK9/cyclin K n/a 1.0 L PRKG1 Km app -2.7 Z
NEK2 Km app 17.8 Z CSNK1G3 (CK1 gamma 3) Km app 4.2 Z NUAK2 n/a 1.0 L KIT T670E n/a -2.8 L
ALK Km app 17.3 Z STK32C (YANK3) n/a 4.2 L CDK2/cyclin O n/a 0.9 L ERBB4 (HER4) Km app -2.8 Z
FGFR3 K650M n/a 16.5 L STK22D (TSSK1) Km app 4.2 Z CAMKK2 (CaMKK beta) n/a 0.9 L PLK4 n/a -2.8 L
SIK3 n/a 16.1 L TAOK3 (JIK) n/a 4.2 L FGFR3 Km app 0.9 Z GRK7 Km app -3.0 Z
LYN A Km app 15.2 Z RPS6KA4 (MSK2) Km app 4.2 Z ULK2 n/a 0.9 L MAPKAPK2 Km app -3.1 Z
BMPR1B (ALK6) n/a 14.5 L PTK2B (FAK2) Km app 4.2 Z KIT D816V n/a 0.9 L FGFR4 Km app -3.1 Z
INSRR (IRR) Km app 14.1 Z CLK2 Km app 4.1 Z CAMK1 (CaMK1) 10 0.8 A CASK n/a -3.1 L
PLK2 Km app 14.1 Z STK24 (MST3) Km app 4.1 Z PTK6 (Brk) Km app 0.7 Z GRK5 Km app -3.2 Z
PRKACA (PKA) Km app 14.0 Z CAMK1D (CaMKI delta) Km app 4.1 Z CAMK2B (CaMKII beta) Km app 0.7 Z EGFR (ErbB1) T790M Km app -3.3 Z
EIF2AK2 (PKR) n/a 13.3 L INSR Km app 4.1 Z ACVR1 (ALK2) n/a 0.7 L PAK4 Km app -3.3 Z
PRKX Km app 12.5 Z IRAK1 Km app 4.0 A ABL1 H396P n/a 0.6 L DAPK3 (ZIPK) Km app -3.4 Z
FGR Km app 12.1 Z SRC N1 Km app 3.9 Z MERTK (cMER) A708S n/a 0.6 L RET M918T n/a -3.5 L
CLK1 Km app 11.7 Z SRPK2 Km app 3.9 Z MAPKAPK5 (PRAK) Km app 0.6 Z PRKCQ (PKC theta) Km app -3.7 Z
MARK3 Km app 11.4 Z RPS6KA6 (RSK4) Km app 3.8 Z AKT1 (PKB alpha) Km app 0.5 Z CAMKK1 (CAMKKA) n/a -3.8 L
PDGFRB (PDGFR beta) Km app 11.0 Z GRK6 Km app 3.7 Z NTRK3 (TRKC) Km app 0.4 Z FLT3 D835Y Km app -3.9 Z
PRKCN (PKD3) Km app 10.7 Z PKN1 (PRK1) Km app 3.6 Z ZAP70 Km app 0.3 Z ROCK2 Km app -4.1 Z
STK16 (PKL12) n/a 10.5 L MAP3K8 (COT) 100 3.5 Z CSNK1A1 (CK1 alpha 1) Km app 0.3 Z CHUK (IKK alpha) Km app -4.2 A
FES (FPS) Km app 10.4 Z FLT4 (VEGFR3) Km app 3.5 Z MYLK (MLCK) n/a 0.2 L AXL Km app -4.2 Z
ABL1 Km app 10.4 Z GRK4 Km app 3.5 Z MKNK2 (MNK2) n/a 0.2 L PIM2 Km app -4.3 Z
MUSK Km app 10.3 Z FRK (PTK5) Km app 3.4 Z AMPK (A1/B1/G3) n/a 0.2 L PAK1 Km app -4.4 Z
MAPK1 (ERK2) Km app 10.1 Z FYN A n/a 3.3 L MAP3K2 (MEKK2) n/a 0.1 L BMPR1A (ALK3) n/a -4.4 L
BRAF 100 9.9 Z CDK1/cyclin A2 n/a 3.3 L CDK8/cyclin C n/a 0.1 L STK4 (MST1) Km app -4.4 Z
IGF1R Km app 9.7 Z KIT V559D T670I n/a 3.1 L MARK2 Km app 0.1 Z PRKCH (PKC eta) Km app -4.6 Z
MAPK14 (p38 alpha) Km app 9.7 Z SPHK2 10 3.1 A ICK n/a 0.0 L SGKL (SGK3) Km app -4.6 Z
LCK Km app 9.6 Z FGFR3 G697C n/a 3.1 L FGFR2 Km app 0.0 Z PI4KB (PI4K beta) Km app -4.7 A
MAPK11 (p38 beta) Km app 9.5 Z RIPK2 n/a 3.1 L AKT2 (PKB beta) Km app 0.0 Z PRKCE (PKC epsilon) Km app -4.9 Z
SRC Km app 9.5 Z PAK6 Km app 3.0 Z EPHB2 Km app -0.1 Z PHKG1 Km app -5.0 Z
CHEK1 (CHK1) Km app 9.3 Z LYN B Km app 3.0 Z TGFBR2 n/a -0.1 L PDGFRA D842V Km app -5.0 Z
CAMK2D (CaMKII delta) Km app 9.3 Z DAPK2 n/a 2.9 L TEK (Tie2) Km app -0.1 Z PRKG2 (PKG2) Km app -5.1 Z
PLK1 Km app 9.2 Z EPHA4 Km app 2.9 Z AURKA (Aurora A) Km app -0.1 Z TYRO3 (RSE) Km app -5.1 Z
RET Y791F Km app 9.2 Z PIK3CG (p110 gamma) Km app 2.9 A KIT D816H n/a -0.2 L TAOK2 (TAO1) Km app -5.1 Z
FLT3 Km app 9.1 Z HIPK1 (Myak) Km app 2.8 Z KIT N822K n/a -0.2 L EPHB4 Km app -5.3 Z
MAPK10 (JNK3) 100 9.0 Z ADRBK2 (GRK3) Km app 2.8 Z PRKACG (PRKAC gamma) n/a -0.2 L AURKC (Aurora C) Km app -5.4 Z
CSNK2A2 (CK2 alpha 2) Km app 8.7 Z STK17B (DRAK2) n/a 2.7 L TEK (TIE2) Y1108F n/a -0.3 L JAK1 Km app -5.7 Z […]

T1 sequence (Q6PHR2 whole entry): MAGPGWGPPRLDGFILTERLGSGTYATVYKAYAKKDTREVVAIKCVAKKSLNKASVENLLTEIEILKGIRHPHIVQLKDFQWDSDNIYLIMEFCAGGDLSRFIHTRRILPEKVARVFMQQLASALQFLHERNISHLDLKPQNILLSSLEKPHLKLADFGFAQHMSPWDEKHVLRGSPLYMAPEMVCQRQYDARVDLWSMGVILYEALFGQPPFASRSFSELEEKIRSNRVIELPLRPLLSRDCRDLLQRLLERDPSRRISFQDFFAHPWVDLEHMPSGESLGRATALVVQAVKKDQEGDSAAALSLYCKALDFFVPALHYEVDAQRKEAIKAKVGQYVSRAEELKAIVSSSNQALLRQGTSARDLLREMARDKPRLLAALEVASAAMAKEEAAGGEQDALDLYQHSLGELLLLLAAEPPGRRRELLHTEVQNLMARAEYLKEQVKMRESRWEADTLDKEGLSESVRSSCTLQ

SMILES: CN(C(=O)CN1CCOCC1)c1ccc2sc3c(-c4cccc5c(=O)cc(N6CC7CCC(C6)O7)oc45)cccc3c2c1 [NU5455]
- % displacement: 4.5%
